Reference: patent US20230322724A1, “HETEROCYCLIC COMPOUNDS AS CBP/EP300 BROMODOMAIN INHIBITORS” (AURIGENE ONCOLOGY LIMITED, priority 2020, published 2023)

Experiments:
[1] = molecular target: T1, recombinant BRD4 FL bromodomain (Homo sapiens, UniProt O60885); assay: BRD4 FL TR-FRET displacement assay; assay type: binding; details: BRD4 FL; for IC50: dose-response, read-out: IC50 (group A, B, C); for inhibition at 10 µM: read-out: % Inhibition (10 μM)
T1 construct: fused on or other part: 6xHis tag, inferred from detection with Mab ANTI 6HIS-XL665
Description: The potency of compounds to inhibit BRD4 FL enzyme was tested in a TR-FRET displacement assay using recombinant BRD4 FL bromodomain obtained In-house. The assay buffer was 50 mM HEPES (pH 7.5), 50 mM NaCl, 500 μM CHAPS. 10 nM of BRD4 FL & 300 nM of Biotinylated Acetyl histone H4 (Lys 5, 8, 12, 16) (Millipore, USA) was incubated at room temperature for 30 minutes, the reaction was initiated by adding the pre-incubated enzyme ligand mixture to the test compounds. After 30 min incubation, the reaction was stopped by the addition of stop mix containing 1 nM of Europium Streptavidin cryptate (Cisbio, USA) and 5 nM of Mab ANTI 6HIS-XL665 (Cisbio, USA) dilutes in assay buffer containing 2.4M Potassium Fluoride. Fluorescence emission of the samples at 665 and 615 nm were measured at an excitation of 340 nm and their ratio was plotted against the compound concentrations to generate dose-response curve. The percent inhibition of the test compounds is calculated using the ratio of enzyme activity controls.
Selected compounds of the present invention were screened in the above-mentioned assay procedures and IC50 values were determined by fitting the dose-response data to sigmoidal curve fitting equation using Graph pad prism software V7.

[2] = molecular target: T2, recombinant CREBBP bromodomain (Homo sapiens, UniProt Q92793); assay: CBP TR-FRET displacement assay; assay type: binding; details: for inhibition at 10 µM: compound at 10 μM; for IC50: dose-response, read-out: IC50 (group A, B, C)
T2 construct: recombinant CREBBP bromodomain obtained from BPS Bioscience, USA; purchased BPS Bioscience, USA
T2 sequence (Q92793 1085-1192 limits assumed): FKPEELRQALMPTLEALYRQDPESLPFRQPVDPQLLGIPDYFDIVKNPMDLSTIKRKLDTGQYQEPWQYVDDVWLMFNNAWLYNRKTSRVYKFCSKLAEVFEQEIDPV
Description: The potency of compounds to inhibit CREBBP enzyme was tested in a TR-FRET displacement assay using recombinant CREBBP bromodomain obtained from BPS Bioscience, USA. The assay buffer was 50 mM HEPES (pH 7.5), 50 mM NaCl, 0.008% Brij 35, 0.01% BSA, 1 mM TCEP. 50 nM of CREBBP & 500 nM of Biotinylated ligand was incubated at room temperature for 30 minutes, the reaction was initiated by adding pre-incubated enzyme ligand mixture to the test compounds. After 60 min incubation, the reaction was stopped by the addition of stop mix containing 1 nM of LANCE Europium-anti-6xHis antibody (Perkin Elmer, USA) and 40 nM of Sure Light Allophycocyanin-Streptavidin (Perkin Elmer, USA). Fluorescence emission of the samples at 665 and 615 nm were measured at an excitation of 340 nm and their ratio was plotted against the compound concentrations to generate dose-response curve. The percent inhibition of the test compounds is calculated using the ratio of enzyme activity controls.
elected compounds of the present invention were screened in the above-mentioned assay procedures and IC50 values were determined by fitting the dose-response data to sigmoidal curve fitting equation using Graph pad prism software V7.

Row | SMILES | IC50 [1] [µM] | IC50 [2] [µM] | also measured
1 | COc1cc(N2CCN(C)c3ccc([S+](C)[O-])cc32)c2cc(C)c(=O)n(C)c2c1 (single isomer, unassigned) [Example 249] | 2.01 to 5 | – | –
2 | Cc1cc2c(N3CCCN(C)c4cc(-c5cnn(C)c5)c(C#N)cc43)cccc2[nH]c1=O [Example 5] | – | – | inhibition at 10 µM [2]: 38%; inhibition at 10 µM ([1]; compound at 10 μM): 48%
3 | CNC(=O)C1CCN(c2cc3c(cc2C#N)N(c2cc(OC)cc4c2cc(C)c(=O)n4C)CCN3C)CC1 [Example 26] | – | < 0.05 | inhibition at 10 µM ([1]; compound at 10 μM): 24%
4 | CNC(=O)C1CN(c2cc3c(cc2C#N)N(c2cc(OC)cc4c2cc(C)c(=O)n4C)CCN3C)C1 [Example 27] | 2.01 to 5 | 0.051 to 0.1 | –
5 | COc1cc(N2CCN(C)c3cc(N4CCC(C)(N)CC4)c(C#N)cc32)c2cc(C)c(=O)n(C)c2c1 [Example 29] | 2.01 to 5 | < 0.05 | –
6 | CNC(=O)c1ccc(-c2cc3c(cc2F)N(c2cc(OC)cc4c2cc(C)c(=O)n4C)CCN3C)cn1 [Example 31] | 2.01 to 5 | < 0.05 | –
7 | CNC(=O)C1CCN(c2cc3c(cc2F)N(c2cc(OC)cc4c2cc(C)c(=O)n4C)CCN3C)CC1 [Example 33] | 2.01 to 5 | 0.051 to 0.1 | –
8 | CCn1c(=O)c(C)cc2c(N3CCN(C)c4cc(-c5cnn(C)c5)c(C#N)cc43)cccc21 [Example 46] | 2.01 to 5 | > 0.01 | inhibition at 10 µM [2]: 98%
9 | CN1CCN(c2cccc3c2ccc(=O)n3C)c2cc(C#N)c(-c3cnn(C)c3)cc21 [Example 51] | 2.01 to 5 | – | inhibition at 10 µM [2]: 99%
10 | CN1CCN(c2cccc3[nH]c(=O)ccc23)c2cc(C#N)c(-c3cnn(C)c3)cc21 [Example 52] | – | – | inhibition at 10 µM [2]: 83%; inhibition at 10 µM ([1]; compound at 10 μM): 35%
11 | CNC(=O)N1CCN(c2cc(OC)cc3c2cc(C)c(=O)n3C)c2cc(C#N)c(-c3cnn(C)c3)cc21 [Example 65, 6-Cyano-4-(7-methoxy-1,3-dimethyl-2-oxo-1,2-dihydroquinolin-5-yl)-N-methyl-7-(1-methyl-1H-pyrazol-4-yl)-3,4-dihydroquinoxaline-1(2H)-carboxamide] | 2.01 to 5 | < 0.05 | –
12 | CCOC(=O)CN1CCN(c2cc(OC)cc3c2cc(C)c(=O)n3C)c2cc(C#N)c(-c3cnn(C)c3)cc21 [Example 66, Ethyl 2-(6-cyano-4-(7-methoxy-1,3-dimethyl-2-oxo-1,2-dihydroquinolin-5-yl)-7-(1-methyl-1H-pyrazol-4-yl)-3,4-dihydroquinoxalin-1(2H)-yl)acetate] | 2.01 to 5 | < 0.05 | –
13 | COc1cc(N2CCN(C)c3cc(C4CCN(C)CC4)c(C#N)cc32)c2cc(C)c(=O)n(C)c2c1 [Example 70, 4-(7-Methoxy-1,3-dimethyl-2-oxo-1,2-dihydroquinolin-5-yl)-1-methyl-7-(1-methylpiperidin-4-yl)-1,2,3,4-tetrahydroquinoxaline-6-carbonitrile] | 2.01 to 5 | 0.051 to 0.1 | –
14 | CONC(=O)COc1cc(N2CCN(C)c3cc(-c4cnn(C)c4)ccc32)c2cc(C)c(=O)n(C)c2c1 [Example 73, 2-((1,3-Dimethyl-5-(4-methyl-6-(1-methyl-1H-pyrazol-4-yl)-3,4-dihydroquinoxalin-1(2H)-yl)-2-oxo-1,2-dihydroquinolin-7-yl)oxy)-N-methoxyacetamide] | 2.01 to 5 | < 0.05 | –
15 | COc1cc(N2CCN(C)c3ccc(C(C)=O)cc32)c2cc(C)c(=O)n(C)c2c1 [Example 79, 5-(7-Acetyl-4-methyl-3,4-dihydroquinoxalin-1(2H)-yl)-7-methoxy-1,3-dimethylquinolin-2(1H)-one] | – | 0.051 to 0.1 | inhibition at 10 µM ([1]; compound at 10 μM): 56%
16 | Cc1cc2c(N3CCN(C)c4ccc(C#N)cc43)cc(OCC(=O)O)cc2n(C)c1=O [Example 82, 2-((5-(7-Cyano-4-methyl-3,4-dihydroquinoxalin-1(2H)-yl)-1,3-dimethyl-2-oxo-1,2-dihydroquinolin-7-yl)oxy)acetic acid] | 2.01 to 5 | 0.051 to 0.1 | –
17 | COc1cc(N2CCN(C)c3ccc(CC(=O)NO)cc32)c2cc(C)c(=O)n(C)c2c1 [Example 83, N-hydroxy-2-(4-(7-methoxy-1,3-dimethyl-2-oxo-1,2-dihydroquinolin-5-yl)-1-methyl-1,2,3,4-tetrahydroquinoxalin-6-yl)acetamide] | 2.01 to 5 | > 0.01 | –
18 | Cc1cc2c(N3CCN(C)c4ccc(S(N)(=O)=O)cc43)cccc2n(C)c1=O [Example 85, 4-(1,3-dimethyl-2-oxo-1,2-dihydroquinolin-5-yl)-1-methyl-1,2,3,4-tetrahydroquinoxaline-6-sulfonamide] | 2.01 to 5 | 0.051 to 0.1 | –
19 | Cc1cc2c(N3CCN(C)c4cc(F)c(S(N)(=O)=O)cc43)cccc2n(C)c1=O [Example 87] | 2.01 to 5 | 0.051 to 0.1 | –

Row | SMILES | IC50 [1] [µM] | IC50 [2] [µM] | also measured
20 | Cc1cc2c(N3CCN(C)c4cc(F)c(S(N)(=O)=O)cc43)cc(N3CCOCC3)cc2n(C)c1=O [Example 88] | 2.01 to 5 | < 0.05 | –
21 | COc1cc(N2CCN(C)c3cc(C4CC=NO4)c(S(N)(=O)=O)cc32)c2cc(C)c(=O)n(C)c2c1 (stereo not shown) [Example 91, 7-(4,5-Dihydroisoxazol-5-yl)-4-(7-methoxy-1,3-dimethyl-2-oxo-1,2-dihydroquinolin-5-yl)-1-methyl-1,2,3,4-tetrahydroquinoxaline-6-sulfonamide] | 2.01 to 5 | < 0.05 | –
22 | Cc1cc2c(N3CCN(C)c4ccc(S(N)(=O)=O)cc43)cc(N3CC[C@@H](O)C3)cc2n(C)c1=O [Example 92, (R)-4-(7-(3-Hydroxypyrrolidin-1-yl)-1,3-dimethyl-2-oxo-1,2-dihydroquinolin-5-yl)-1-methyl-1,2,3,4-tetrahydroquinoxaline-6-sulfonamide] | 2.01 to 5 | – | –
23 | CNS(=O)(=O)c1ccc2c(c1)N(c1cc(OC)cc3c1cc(C)c(=O)n3C)CCN2C [Example 95] | 2.01 to 5 | < 0.05 | –
24 | COc1cc(N2CCN(C3CC3)c3ccc(S(N)(=O)=O)cc32)c2cc(C)c(=O)n(C)c2c1 [Example 96] | 2.01 to 5 | 0.051 to 0.1 | –
25 | COc1cc(N2CCN(C)c3ccc(S(=O)(=O)NC(C)=O)cc32)c2cc(C)c(=O)n(C)c2c1 [Example 98] | – | < 0.05 | inhibition at 10 µM ([1]; compound at 10 μM): 56%
26 | COc1cc(N2CCN(C)c3cc(N4CCN(C(C)=O)CC4)ncc32)c2cc(C)c(=O)n(C)c2c1 [Example 119] | 2.01 to 5 | – | –
27 | COc1cc(N2CCN(C)c3cc(N4CCCC(C#N)C4)ncc32)c2cc(C)c(=O)n(C)c2c1 (stereo not shown) [Example 120] | – | – | inhibition at 10 µM ([1]; compound at 10 μM): 34%
28 | COc1cc(N2CCN(C)c3cc(N4CCCC(NC(C)=O)C4)ncc32)c2cc(C)c(=O)n(C)c2c1 (stereo not shown) [Example 122] | – | – | inhibition at 10 µM ([1]; compound at 10 μM): 33%
29 | Cc1cc2c(N3CCN(C)c4cc(C5CCOC5)ncc43)cc(N3CCOCC3)cc2n(C)c1=O (stereo not shown) [Example 137] | – | – | inhibition at 10 µM ([1]; compound at 10 μM): 26%
30 | Cc1cc2c(N3CCN(C)c4cc(C5CC5)ncc43)cc(N3CCOCC3)cc2n(C)c1=O [Example 138] | 2.01 to 5 | – | –
31 | Cc1cc2c(N3CCN(C)c4cc(N5CCCCC5)ncc43)cc(N3CCOCC3)cc2n(C)c1=O [Example 139] | – | – | inhibition at 10 µM ([1]; compound at 10 μM): 43%
32 | Cc1cc2c(N3CCN(C)c4cc(-c5cnn(C)c5)ncc43)cc(N3CCCC(C#N)C3)cc2n(C)c1=O (stereo not shown) [Example 149] | 2.01 to 5 | – | –
33 | COc1cc(N2CCCc3ccc(NC(C)=O)cc32)c2cc(C)c(=O)n(C)c2c1 [Example 196, N-(7′-methoxy-1′,3′-dimethyl-2′-oxo-1′,2′,3,4-tetrahydro-2H-[1,5′-biquinolin]-7-yl)acetamide] | 2.01 to 5 | – | –
34 | COc1cc(N2CCCc3ccc(-c4cn[nH]c4)cc32)c2cc(C)c(=O)n(C)c2c1 [Example 198, 7′-Methoxy-1′,3′-dimethyl-7-(1H-pyrazol-4-yl)-3,4-dihydro-2H-[1,5′-biquinolin]-2′(1′H)-one] | 2.01 to 5 | – | –
35 | COc1cc(N2CCCc3ccc(S(=O)(=O)NC(C)=O)cc32)c2cc(C)c(=O)n(C)c2c1 [Example 199, N-((T-methoxy-1′,3′-dimethyl-2′-oxo-1′,2′,3,4-tetrahydro-2H-[1,5′-biquinolin]-7 yl)sulfonyl)acetamide] | – | – | % Inhibition (10 μM) ([1]; compound at 10 μM): 45%
36 | CNC(=O)c1ccc(-c2cc3c(cc2C(F)F)N(c2nc(N4CCOCC4)cc4c2cc(C)c(=O)n4C)CCC3)cn1 [Example 203] | 2.01 to 5 | – | –
37 | Cc1cc2c(N3CCCc4cc(-c5cnn(C)c5)c(C(F)F)cc43)nc(-n3ccnc3)cc2n(C)c1=O [Example 204] | – | – | inhibition at 10 µM ([1]; compound at 10 μM): 12%
